“Also recorded” adds a separate entry of the source. Where a name gives a salt, the structure may show the parent alone. One block for each molecule: values may come before it.
How the values were obtained:
Assay type in all cases: physicochemical
[1] = Gravimetric vapour sorption (GVS)
Method: Sorption isotherms were obtained using a Hiden IGASorp moisture sorption analyser, controlled by CFRSorp software. The sample temperature was maintained at 25° C. by a Huber re-circulating water bath. The humidity was controlled by mixing streams of dry and wet nitrogen, with a total flow rate of 250 ml/min. The relative humidity (RH) was measured by a calibrated Vaisala RH probe (dynamic range of 0-95% RH), located near the sample. The weight change, (mass relaxation) of the sample as a function of % RH was constantly monitored by the microbalance (accuracy ±0.001 mg). Typically 10-20 mg of sample was placed in a tared mesh stainless steel basket under ambient conditions. The sample was loaded and unloaded at 40% RH and 25° C. (typical room conditions). A moisture sorption isotherm was performed as outlined below (2 scans giving 1 complete cycle). The standard isotherm was performed at 25° C. at 10% RH intervals over a 0-90% RH range.
The software uses a least squares minimisation procedure together with a model of the mass relaxation, to predict an asymptotic value. The measured mass relaxation value must be within 5% of that predicted by the software, before the next % RH value is selected. The minimum equilibration time was set to 1 hour and the maximum to 4 hours. The sample was recovered after completion of the isotherm and re-analysed by XRPD.

[2] = Storage at 40° C./75% RH (solid-state stability); details: for Stability on storage at 40° C./75% RH: 1 week, solid form by XRPD; for Storage 40° C./75% RH: salt screen solids stored 1 week, outcome / XRPD pattern after storage
Method: The crystalline solids were filtered, dried at ambient conditions, and stored at 40° C./75% RH for 1 week and analyzed by ^1H NMR/IC.
Samples from the screen using amorphous free base Compound 1 were analysed by ^1H-NMR and DSC, and re-analysis by XRPD was also carried out after drying at 50° C./vacuum and storage at 40° C./75% RH (the same sample was dried and stored at elevated humidity).

[3] = Polymorph screen: maturation (temperature cycling RT/50° C.) in solvents
Method: One of 21 solvents was added to each vial in a number of aliquots (up to 30 volumes), with shaking. All the samples were then placed under maturation between RT to 50° C. (4 hours at each temperature) for 3 days. After maturation the samples were analysed by XRPD. Clear solutions were cooled to −20° C. (freezer). If no precipitation occurred samples were evaporated at RT.
Samples were placed under maturation between RT-50° C. (4 hours cycle) for 3 days. After maturation the samples were analyzed by XRPD. Clear solutions were then cooled to −20° C. (freezer). If no precipitation occurred, samples were evaporated at RT.
Bis-Sulfuric acid salt Form 1 of Compound 1 (ca. 35 mg) was weighed into vials. The corresponding solvents and solvent mixtures were added in portions of (a total of) 5, 10, 20, and 30 volumes at 50° C., with shaking, aiming for clear solutions. After each addition, the vials were allowed to shake for 20 minutes, after which observations were made. Solutions were allowed to evaporate, whereas slurries were set for 8 hour temperature cycling maturation, between RT and 50° C., for 5 days.
The oils obtained by solvent evaporation were used for the maturation screen. Anhydrous solvents (5 volumes; 100 μL) were used in order to minimise the amount of water present. Any solutions were allowed to slowly evaporate, whereas slurries were set for 8 hour temperature cycling maturation, between RT and 50° C. After 24 hours, most oils had not mixed with the solvents, and these were scratched with a spatula, producing slurries. These were matured for a further 24 hours before performing XRPD analysis.
Amorphous free base Compound 1 (ca. 25 mg) was weighed into vials. The selected solvents and solvent mixtures (5 to 20 volumes) were added with stirring. Any solutions were allowed to slowly evaporate, whereas slurries were set for 8 hour temperature cycling maturation, between RT and 50° C., for 2 days.
Crystals were ground in order to analyse them by XRPD. Suspensions were set for temperature cycling for a total of five days after which time XRPD analysis was carried out. […] Similar to the screen in Example 20, these XRPD patterns show slight differences (FIG. 37). However, solids from both screens obtained from the same solvent show a matching XRPD pattern, also supporting that this is a series of isostructural solvates. […]

[4] = Solubility assessment using free base Hydrate Form 2; details: RT (cell says RT, head 50° C.)
Method: The best solvent systems (clear solutions) were methanol:anisole 1:1 and DMSO (10 volumes, at RT), dioxane (10 volumes, 50° C.), chloroform (20 volumes, RT). […]

- GVS: XRPD after the experiment [1]: anhydrous Form 4
- GVS: moisture on loading ([1]; 25° C.): 6.3% w/w moisture on
- GVS: reversible moisture uptake between 0-90% RH ([1]; second cycle): cycle shows 4.9%
SMILES: CC(=O)O.COc1cc(-c2cccc3cc([C@H](C)Nc4nc(N)ncc4C#N)n(-c4ccccc4)c(=O)c23)ccn1.COc1cc(-c2cccc3cc([C@H](C)Nc4nc(N)ncc4C#N)n(-c4ccccc4)c(=O)c23)ccn1 [Batch 1 of Form 6]

- XRPD after Storage at 40° C./75% RH ([2]; screening sample from H2O): No changes
SMILES: COc1cc(-c2cccc3cc([C@H](C)Nc4nc(N)ncc4C#N)n(-c4ccccc4)c(=O)c23)ccn1 [Form 4 of the free base of Compound 1, (S)-2-amino-4-((1-(8-(2-methoxypyridin-4-yl)-1-oxo-2-phenyl-1,2-dihydroisoquinolin-3-yl)ethyl)amino)pyrimidine-5-carbonitrile]
- GVS: form change with humidity ([1]; above 80% RH): hydrates above 80% RH, but reversibly dehydrates back at 40% RH

- Stability on storage at 40° C./75% RH [2]: deliquesces
- Stability on storage at 40° C./75% RH ([2]; listed as isethionate): deliquesced
- Storage 40° C./75% RH ([2]; listed as 2-Hydroxyethane sulfonic acid): Deliquesced
SMILES: COc1cc(-c2cccc3cc([C@H](C)Nc4nc(N)ncc4C#N)n(-c4ccccc4)c(=O)c23)ccn1 [Form 1 of the isethionate salt of Compound 1] [(S)-2-amino-4-((1-(8-(2-methoxypyridin-4-yl)-1-oxo-2-phenyl-1,2-dihydroisoquinolin-3-yl)ethyl)amino)pyrimidine-5-carbonitrile]

Second part, the molecule before the results:

SMILES: COc1cc(-c2cccc3cc([C@H](C)Nc4nc(N)ncc4C#N)n(-c4ccccc4)c(=O)c23)ccn1 [Form 4 of Free Base Compound 1]
- GVS: moisture on loading ([1]; 25° C.): 0.3 % w/w
- GVS: uptaken between 70-90% RH ([1]; 25° C., with hysteresis on desorption): 4.8 % w/w

SMILES: COc1cc(-c2cccc3cc([C@H](C)Nc4nc(N)ncc4C#N)n(-c4ccccc4)c(=O)c23)ccn1 [Form 6 of the free base of Compound 1, (S)-2-amino-4-((1-(8-(2-methoxypyridin-4-yl)-1-oxo-2-phenyl-1,2-dihydroisoquinolin-3-yl)ethyl)amino)pyrimidine-5-carbonitrile]
- Stability on storage at 40° C./75% RH [2]: converts to Form 3
- Storage at elevated humidity ([2]; elevated humidity conditions, solid form): conversion to Hydrate Form 3
- GVS: form change with humidity ([1]; at 0% RH): Desolvation to the anhydrous Form 4

SMILES: CC(=O)c1ccc2c(c1)[C@@H]1C=CC[C@@H]1[C@H](c1cc3c(cc1Br)OCO3)N2 [amorphous material]
- XRPD ([3]; 2-MeTHF 200 μL, cycling RT/50° C.): Crystalline Form 5
- XRPD ([3]; Acetone 100 μL, cycling RT/50° C.): Crystalline Form 5
- XRPD ([3]; Acetonitrile 200 μL, cycling RT/50° C.): Crystalline Form 5
- XRPD ([3]; DCM 150 μL, cycling RT/50° C.): Crystalline Form 5
- XRPD ([3]; DCM:MeOH 1:1 150 μL, cycling RT/50° C.): Crystalline Form 5
- XRPD ([3]; DME 150 μL, cycling RT/50° C.): Crystalline Form 5
- XRPD ([3]; EtOAc 100 μL, cycling RT/50° C.): Crystalline Form 5
- XRPD ([3]; EtOH 250 μL, cycling RT/50° C.): Crystalline Form 5
- XRPD ([3]; EtOH/5% water 150 μL, cycling RT/50° C.): Crystalline Form 5
- XRPD ([3]; H2O 450 μL, cycling RT/50° C.): Partially crystalline =; also recorded: matches FB Pattern 4
- XRPD ([3]; IPA 150 μL, cycling RT/50° C.): Crystalline Form 5
- XRPD ([3]; IPAc 300 μL, 16 hours maturation): Crystalline Form 5
- XRPD ([3]; MIBK 100 μL, cycling RT/50° C.): Crystalline Form 5
- XRPD ([3]; MeCN/5% water 150 μL, cycling RT/50° C.): Crystalline Form 5
- XRPD ([3]; MeOH 250 μL, cycling RT/50° C.): Crystalline Form 5
- XRPD ([3]; TBME 300 μL, cycling RT/50° C.): Crystalline Form 5
- XRPD ([3]; THF 150 μL, cycling RT/50° C.): Crystalline Form 5
- XRPD ([3]; THF/5% water 150 μL, cycling RT/50° C.): Crystalline Form 5

SMILES: COc1cc(-c2cccc3cc([C@H](C)Nc4nc(N)ncc4C#N)n(-c4ccccc4)c(=O)c23)ccn1.O [FB Hydrate Form 2]
- Solubility ([4]; DMSO, 10 vols): ✓ (RT)
- Solubility ([4]; MeOH/anisole, 10 vols): ✓ (RT)
- Solubility ([4]; chloroform, 20 vols): ✓ (RT)
- XRPD ([3]; 1-butanol, Maturation): Crystalline Form 5
- XRPD ([3]; 2-MeTHF, evaporation yielded oil, maturation of oil): Crystalline Form 5
- XRPD ([3]; Acetone, Maturation): Crystalline Form 5
- XRPD ([3]; DCM:MeOH 1:1, Crystallization in fridge): Crystalline Form 5 + Form 1
- XRPD ([3]; DCM, Crystallization in fridge): Crystalline Form 5
- XRPD ([3]; DMSO, no crystallization in fridge, set for evaporation): Amorphous
- XRPD ([3]; Dioxane, evaporation yielded oil, maturation of oil): Crystalline Form 5 + Form 3
- XRPD ([3]; EtOAc, Maturation): Crystalline Form 5
- XRPD ([3]; EtOH/5% water, Maturation): Crystalline Form 5
- XRPD ([3]; EtOH/water 1:1, Maturation): Crystalline Form 2
- XRPD ([3]; EtOH, Maturation): Crystalline Form 5
- XRPD ([3]; IPA, Maturation): Crystalline Form 5
- XRPD ([3]; IPAc, Maturation): Crystalline Form 5
- XRPD ([3]; MIBK, Maturation): Crystalline Form 5
- XRPD ([3]; MeCN/5% water, Crystallization in fridge): Crystalline Form 5
- XRPD ([3]; MeOH/anisole, Crystallization in fridge): Crystalline Form 5
- XRPD ([3]; THF, Crystallization in fridge): Crystalline Form 5
- XRPD ([3]; acetonitrile, Maturation): Crystalline Form 5
- XRPD ([3]; chloroform, cooling in fridge yielded oil, maturation of oil): Crystalline Form 5

SMILES: COc1cc(-c2cccc3cc([C@H](C)Nc4nc(N)ncc4C#N)n(-c4ccccc4)c(=O)c23)ccn1 [Form 1 of the hydrochloride salt of Compound 1] [(S)-2-amino-4-((1-(8-(2-methoxypyridin-4-yl)-1-oxo-2-phenyl-1,2-dihydroisoquinolin-3-yl)ethyl)amino)pyrimidine-5-carbonitrile]
- Stability on storage at 40° C./75% RH [2]: deliquesces
- Stability on storage at 40° C./75% RH ([2]; listed as hydrochloride): deliquesced
- Storage 40° C./75% RH ([2]; listed as Hydrochloric acid): Deliquesced
